From US20140171465A1, “Methods For Increasing Reticulocyte Hemoglobin Content” (FibroGen, Inc., priority 2011, published 2014)

How the values were obtained:
Format in all cases: in vivo
[1] = tested on: human subjects with end-stage renal disease; assay: Mean hemoglobin levels in human subjects with end-stage renal disease, 6 weeks TIW; settings: six week treatment period; Compound A 1.5 mg/kg and 2.0 mg/kg TIW; epoetin alfa TIW
[2] = tested on: human subjects with stage 3 and stage 4 chronic kidney disease; assay: Reticulocyte hemoglobin content (CHr) in human subjects with stage 3 or stage 4 chronic kidney disease, 17 weeks
Experimental: The effect of compound of the present invention on CHr was determined in human subjects with stage 3 and stage 4 chronic kidney disease patients (eGFR<60 ml/min) as follows. Subjects with stage 3 or stage 4 chronic kidney disease not receiving dialysis were administered Compound A at either approximately 1.2 mg/kg twice weekly or 70 mg fixed dose thrice weekly for a period of 17 weeks. Dose adjustments were permitted from week 5 onward to correct and maintain subjects to a target hemoglobin range; however, doses were not allowed to exceed 2.5 mg/kg per dose. CHr values were measured at week 9 and week 17.

[3] = tested on: human subjects with end-stage renal disease; assay: Reticulocyte hemoglobin content (CHr) in human subjects with end-stage renal disease, 6 weeks TIW; settings: for Mean Change (pg) from Baseline CHr at Day 43 (6 weeks) of Treatment: ESRD on hemodialysis, no IV iron
Experimental: The effect of a compound of the present invention on CHr was determined in human subjects with end-stage renal disease as follows. In the current studies, subjects had been receiving stable maintenance hemodialysis for at least 4 months prior to the initiation of the present study. Additionally, subjects had been maintained on standard of care stable doses of epoetin alfa for the treatment of anemia prior to initiation of the present study.
In order to examine differences in the CHr response in subjects treated with compound of the invention compared to the CHr response in subject treated with epoetin alpha (the current standard of care), all IV iron supplementation was halted two weeks prior to treatment initiation. Administration of oral iron was allowed.
[…] Baseline CHr levels were determined prior to treatment (mean of two screening period measurements with the Day 1 measurement). CHr levels were measured weekly throughout the six-week study period.
In contrast, CHr decreased in subjects treated with epoetin alfa during the same time period.

[4] = tested on: human patients; assay: Safety and efficacy of tested doses in human patients; settings: doses between 0.7 and 2.5 mg/kg administered TIW, BIW, or QW
Source text: In a particular embodiment, the present invention provides an efficacious therapeutic compound for treating a subject having reduced reticulocyte hemoglobin content. Specifically, the invention comprises the compound [(4-hydroxy-1-methyl-7-phenoxy-isoquinoline-3-carbonyl)-amino]-acetic acid for use in methods of increasing reticulocyte hemoglobin content (CHr) in a subject.

## Cc1nc(C(=O)NCC(=O)O)c(O)c2ccc(Oc3ccccc3)cc12 [Compound A, [(4-hydroxy-1-methyl-7-phenoxy-isoquinoline-3-carbonyl)-amino]-acetic acid]
[1]
  changes in mean hemoglobin levels (FIG. 2): time-dependent increase in mean hemoglobin levels
[2]; 70 mg fixed dose TIW, weeks 9 to 17
  maintenance of mean CHr (FIG. 3B): maintenance of mean CHr from 9 to 17 weeks
[2]; approximately 1.2 mg/kg BIW or 70 mg TIW, 17 weeks, CKD stage 3/4 not on dialysis
  mean CHr over time (FIG. 3A, 3B): mean CHr increased over time
[3]; 1 mg/kg TIW, N = 10
  Mean Change (pg) from Baseline CHr at Day 43 (6 weeks) of Treatment: +0.41 pg
[3]; 1.3 mg/kg TIW (N=5)
  mean increase in CHr over baseline after 6 weeks of treatment: 0.85 pg/cell
[3]; 1.5 mg/kg TIW, N = 9
  Mean Change (pg) from Baseline CHr at Day 43 (6 weeks) of Treatment: +0.10 pg
[3]; 1.8 mg/kg TIW (N=5)
  mean increase in CHr over baseline after 6 weeks of treatment: 0.82 pg/cell
[3]; 2.0 mg/kg TIW, N = 9
  Mean Change (pg) from Baseline CHr at Day 43 (6 weeks) of Treatment: +0.44 pg
[3]; six week treatment period, Compound A 1.0, 1.5 and 2.0 mg/kg TIW, epoetin alfa TIW
  change from baseline of the mean CHr over time (FIG. 1): increase in mean CHr over time
[4]
  safety and efficacy of tested doses: safe, useful, and effective
